Values quoted from earlier work in patent publication US11717549B2, “Steviol glycoside solubility enhancers” (CARGILL, INCORPORATED, priority 2017, dated 2023).

Details: temperature 15 ° C.; cited from earlier work

Compared with `O=C(O)c1ccnc(C(=O)O)c1C(=O)O` [2,3,4-pyridinetricarboxylic acid], `O=C(O)c1c(Br)cc(Br)cc1Br` [2,4,6-tribromobenzoic acid] is lower in “solubility (ppm)” value: 1.19E+04 ppm for the first, 3.49E+03 ppm for the second.

Same assay, conditions: temperature 16 ° C.; cited from earlier work

In the case of `O=C(O)c1cc(C(=O)O)cc(C(=O)O)c1` [1,3,5-benzenetricarboxylic acid], the “solubility (ppm)” value is listed as 3.79E+03 ppm.

Same assay, conditions: temperature 18 ° C.; cited from earlier work

First: 1,5-anthraquinone disulfonic acid anilide
Second: 1,7-chloroanthraquinone sulfonic acid
The “solubility (ppm)” value of the first is lower: 3.97E+03 ppm for the first, 1.67E+05 ppm for the second.

Compared with `O=C1c2cccc(S(=O)(=O)O)c2C(=O)c2cccc(S(=O)(=O)O)c21` [1,5-anthraquinone disulfonic acid], `O=C1c2cccc(S(=O)(=O)O)c2C(=O)c2cccc(Cl)c21` [1,5-chloroanthraquinone sulfonic acid] is lower in “solubility (ppm)” value: 2.86E+05 ppm for the first, 2.50E+05 ppm for the second.

Going from `O=C1c2cc(S(=O)(=O)O)ccc2C(=O)c2c1cccc2S(=O)(=O)O` [1,6-anthraquinone disulfonic acid] to `O=C1c2cc(S(=O)(=O)O)ccc2C(=O)c2c(Cl)cccc21` [1,6-chloroanthraquinone sulfonic acid], the “solubility (ppm)” value falls from 3.33E+05 ppm to 1.67E+05 ppm.

Compared with `O=C1c2cccc(S(=O)(=O)Nc3ccccc3)c2C(=O)c2c1cccc2S(=O)(=O)Nc1ccccc1` [1,8-anthraquinone disulfonic acid anilide], `O=C1c2cccc(S(=O)O)c2C(=O)c2c1cccc2S(=O)O` [1,8-anthraquinonedisulfinic acid] is higher in “solubility (ppm)” value: 2.27E+04 ppm for the first, 2.86E+05 ppm for the second.

Same assay, conditions: temperature 19 ° C.; cited from earlier work

For `O=C(O)c1cccc(C(=O)O)c1C(=O)O` [1,2,3-benzenetricarboxylic acid], the “solubility (ppm)” value is given as 2.97E+04 ppm.

Same assay, conditions: temperature 20 ° C.; cited from earlier work

In the case of `O=C(O)C(O)c1ccccc1` (racemic) [alpha-hydroxybenzeneacetic acid, (±)], the “solubility (ppm)” value is given as 1.21E+05 ppm.

Same assay, conditions: temperature 21 ° C.; cited from earlier work

For `CC(=O)Oc1ccccc1C(=O)OC[S+](C)[O-]` (stereo not shown) [2-(acetoxy)-benzoic acid, (methylsulfinyl)methyl ester], the “solubility (ppm)” value is given as 4.21E+03 ppm.

Same assay, conditions: temperature 25 ° C.; cited from earlier work

Going from `CCCCC(C)C(=O)O` (racemic) [2-methylhexanoic acid] to `CCC(C)CCC(=O)O` (racemic) [4-methylhexanoic acid], the “solubility (ppm)” value falls from 6.07E+03 ppm to 3.56E+03 ppm.

Going from `CC1(C)[C@@H](C(=O)O)CC[C@@]1(C)C(=O)O` (relative stereo) [cis-1,2,2-trimethyl-1,3-cyclopentanedicarboxylic acid, (1R)] to `CCC(C)(CC)C(=O)O` [2-ethyl-2-methylbutanoic acid], the “solubility (ppm)” value rises from 7.54E+03 ppm to 9.69E+03 ppm.

First: CCCCC(C)(C)C(=O)O [2,2-dimethylhexanoic acid]
Second: CCCC=C(CC)C(=O)O [2-ethyl-2-hexenoic acid]
The “solubility (ppm)” value of the first is lower: 3.44E+03 ppm for the first, 6.06E+03 ppm for the second.

Going from `O=C(O)c1cccnc1C(=O)O` [2,3-pyridinedicarboxylic acid] to `O=C(O)c1ccccc1F` [2-fluorobenzoic acid], the “solubility (ppm)” value falls from 1.09E+04 ppm to 7.15E+03 ppm.

Going from `O=C(O)c1ccc(O)cc1O` [2,4-dihydroxybenzoic acid] to `O=C(O)c1ccc([N+](=O)[O-])cc1[N+](=O)[O-]` [2,4-dinitrobenzoic acid], the “solubility (ppm)” value rises from 5.96E+03 ppm to 1.79E+04 ppm.

First: CC(=O)Oc1ccccc1C(=O)O [2-(acetyloxy)benzoic acid]
Second: O=C(O)c1ccccc1C(F)(F)F [2-(trifluoromethyl)benzoic acid]
The “solubility (ppm)” value of the first is lower: 4.58E+03 ppm for the first, 4.78E+03 ppm for the second.

Same assay, conditions: temperature not given; cited from earlier work

First: O=C(O)c1c(Cl)cccc1Cl [2,6-dichlorobenzoic acid]
Second: O=C(O)c1c(O)cccc1O [2,6-dihydroxybenzoic acid]
The “solubility (ppm)” value of the first is higher: 1.39E+04 ppm for the first, 9.47E+03 ppm for the second.
